What was measured:
[1] = tested on: human HepG2 hepatoblastoma cells; assay: Growth inhibition, crystal violet staining, HepG2; assay type: cell-based; conditions: 48 h incubation, mean ± SD, read-out: Anti-proliferative activity IC50, HepG2
Procedure: (§1) The well-differentiated p53 wild-type human hepatoblastoma cell line HepG2 (ATCC# 8065) and the highly differentiated p53 mutated human hepatocellular carcinoma cell line Huh-7 (JCRB#0403) were grown in RPMI 1640 medium supplemented with 10% fetal bovine serum and 100 U/mL penicillin and […] streptomycin. Murine AML-12 hepatocytes were obtained from ATCC (CRL-2254) and grown in DMEM/F-12 Glutamax medium supplemented with 10% fetal bovine serum, 10 µg/mL insulin, 5.5 µg/mL transferrin, 5 ng/mL selenium (Gibco ITS-G 100X) and 40 ng/mL dexamethasone (Sigma-Aldrich). All cell lines were incubated in a 37 °C, 5% CO2, 95% humidified atmosphere.
(§2) Treatment-induced changes in cell number were evaluated by crystal violet staining, as previously described. Briefly, 1.500 cells per well were seeded in 96-well plates for 24 h at 37 °C, 5% CO2. For the experiments with HepG2 and Huh-7 cell lines, cells were incubated with rising concentrations (0–20 µM) of the new compounds (1a–1o) for 48 h. AML12-cells were treated with compounds 1a, 1b, 1c, 1e, 1i and 1j for 48 h and at concentrations ranging from 0.5–64 µM. Thereafter, the cells were fixed with 1% glutaraldehyde and stained with 0.1% crystal violet (Sigma-Aldrich). The unbound dye was removed by rinsing with water. Bound crystal violet was solubilized with 0.2% Triton X-100 (Sigma-Aldrich). Light extinction of crystal violet, which increases linearly with cell number, was analyzed at 570 nm using an ELISA-Reader (Dynex Technologies, Denkendorf, Germany). All experiments were carried out in duplicate or triplicate.

human Huh-7 HCC cells = assay: Growth inhibition, crystal violet staining, Huh-7; assay type: cell-based; conditions: 48 h incubation, mean ± SD, read-out: Anti-proliferative activity IC50, Huh-7
Procedure: as §1, §2

[2] = tested on: HepG2-tumors grown on membranes of fertilized chicken eggs; assay: Chorioallantoic membrane (CAM) assay; assay type: in vivo; conditions: topical treatment 72 h; 1b 0–10 µM, 1c 0–2.5 µM, sorafenib 10 µM
Procedure: The chorioallantoic membrane (CAM) assay was performed as described previously. Fertilized chicken eggs (Gallus gallus) were obtained from commercial sources (Valo GmbH, Germany) and incubated in a humid environment at 38 °C. On day 3 of the egg development, a window was cut in the eggshell to access the developing vascular network of the CAM. At day 10 of chicken embryo development, a sterile silicon ring (10 mm diameter) was placed on the CAM and tumor plugs of 3 × 10^6 HepG2 cells in 20 µL Matrigel (BD Biosciences) with reduced growth factors were placed inside the silicon ring. After 24 h at 38 °C in an incubator, the tumor plaques attached and connected to the (tumor-)feeding CAM microvasculature. Then, the tumor plaques were topically treated with either PBS (negative control) or PBS containing rising concentrations of 1b (0–10 µM), 1c (0–2.5 µM) or sorafenib (10 μM) for 3 days. Tumor growth and viability of the embryo were controlled daily by stereo microscopy. After 72 h of treatment, the tumors were recovered for weighing and pictures were taken using a stereomicroscope equipped with a Kappa digital camera system (Kappa Optronics GmbH, Germany). For data analysis, the tumor weight of 1c-treated and untreated control tumors was determined and the mean weight of treated vs. untreated tumors of 11 eggs for each condition was calculated. Statistical significance evaluated by one-way ANOVA tests.

HepG2 cells = assay: LDH release assay (unspecific cytotoxicity); assay type: cell-based, human; conditions: HepG2, 0.5 and 10 µM, 12 or 24 h
Procedure: Unspecific cytotoxicity induced by treatment with 0.5 µM and 10 µM of 1a, 1b, 1c and sorafenib (LC Laboratories, Woburn, MA, USA) was determined by measuring the release of lactate dehydrogenase (LDH) from HepG2 cells into the supernatant after 12 and 24 h (Cytotoxicity Detection KitPLUS LDH, Roche Diagnostics GmbH, Mannheim, Germany). The supernatant of treated samples was collected, and adherent non-treated cells were lysed with 2% Triton X-100 for 10 min to determine the maximum LDH release. All samples were mixed with catalyst and dye solution for 30 min, resulting in the formation of formazan dye proportional to LDH enzyme activity. The absorbance was measured at 490/630 nm using an ELISA reader (Dynex Technologies, Denkendorf, Germany) and cytotoxicity was determined by subtracting the percentage of LDH release under control conditions of those from treated samples. Experiments were performed in duplicate and data are given as mean percentage changes ± SD as compared to controls of n = 3 experiments.

[3] = tested on: caspase-3 activity of HepG2 cells; assay: Apoptosis-specific caspase-3 activity; assay type: cell-based, human; conditions: HepG2, 1 and 10 µM, 24 h
Procedure: Changes in caspase-3 activity were measured by the cleavage of the fluorogenic substrate AC-DEVD-AMC (EMD Millipore, Billerica, MA, USA), as described previously. After 24 h of incubation with 1a, 1b, 1c, 1e and sorafenib (1 and 10 µM) the cells were harvested and lysed with lysis buffer. Subsequently, the lysates were incubated for 1 h at 37 °C with a substrate solution containing 20 μg/mL AC-DEVD-AMC, 20 mM HEPES, 10% glycerol and 2 mM DTT at pH 7.5. Substrate cleavage was measured fluorometrically using a Varioskan Flash Fluorometer (Thermo Fisher Scientific, Waltham, MA, USA; filter sets: ex 360/40 nm, em 460/10 nm). n = 3 independent measurements were performed in triplicate, and data are given as the mean percentage increase ± SD above control, which was set 100%.

Pim-1 = conditions: cited from earlier work

## CNC(=O)c1cc(Oc2ccc(NC(=O)Nc3ccc(Cl)c(C(F)(F)F)c3)cc2)ccn1 [Sorafenib, sorafenib, reference compound]
[1]
  IC50: 2.73 ± 0.76 µM
Human Huh-7 HCC cells
  IC50: 2.5 ± 0.14 µM
[2]
  tumor reduction vs PBS-treated controls (in words): pronounced tumor reductions
HepG2 cells
  LDH release / unspecific cytotoxicity (in words): do not exert considerable unspecific cytotoxicity
[3]
  caspase-3 activity (in words): dose-dependently induced caspase-3 activity
Pim-1
  Pim-1 inhibitory activity (in words): no Pim-1 inhibitory activity
